We go through 10 compounds from patent US20230021562A1, “[…] D[…]-1 INHIBITORS” (priority 2019, published 2023).

Several values for one entry are separate records, joined by “and”; a condition that tells them apart may be missing. Equal entries are not always repeated. Where two headings read alike, the source gives them in different places.

The target in assay [1] is Myeloid Cell Leukemia 1 (Mcl-1) (Homo sapiens, UniProt Q07820). The assay is described as follows: biochemical. Format: binding. The conditions noted are these: HTRF Ki (nM). On the technique in general: In TR-FRET formats the signal depends on donor and acceptor labels being close together.
Chain of Myeloid Cell Leukemia 1 (Mcl-1) (Q07820 whole entry): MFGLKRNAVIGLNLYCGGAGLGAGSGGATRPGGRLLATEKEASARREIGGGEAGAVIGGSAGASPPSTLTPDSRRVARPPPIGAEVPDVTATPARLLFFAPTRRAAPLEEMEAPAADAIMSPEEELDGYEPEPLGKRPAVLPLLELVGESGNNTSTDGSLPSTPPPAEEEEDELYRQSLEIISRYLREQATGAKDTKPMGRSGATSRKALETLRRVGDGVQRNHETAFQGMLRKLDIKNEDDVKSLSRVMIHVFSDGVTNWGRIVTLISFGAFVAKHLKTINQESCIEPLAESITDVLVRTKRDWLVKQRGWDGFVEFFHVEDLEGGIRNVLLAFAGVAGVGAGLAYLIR
A further assay concerns MOLP8 cell line. The assay is described as follows: MOLP8 CellEvent Caspase-3/7 Green live-cell IncuCyte apoptosis assay. The assay is classed as cell-based, human. The conditions noted are these: MOLP8 cells, averaged values. On the procedure: (§1) MCL-1 is a regulator of apoptosis and is highly over-expressed in tumor cells that escape cell death. The assay evaluates the cellular potency of small-molecule compounds targeting regulators of the apoptosis pathway, primarily MCL-1, Bfl-1, Bcl-2, and other proteins of the Bcl-2 family. Protein-protein inhibitors disrupting the interaction of anti-apoptotic regulators with BH3-domain proteins initiate apoptosis.
Activation of the apoptotic pathway was measured using the CellEvent™ Caspase-3/7 Green ReadyProbes™ Reagent (Thermo Fisher C10423, C10723). This assay produces a green fluorescent stain in cells that enter the apoptosis pathway. CellEvent® Caspase-3/7 Green reagent is a four amino acid peptide (DEVD) conjugated to a nucleic acid-binding dye that is non-fluorescent when not bound to DNA. The CellEvent® Caspase-3/7 Green reagent is intrinsically non-fluorescent, as the DEVD peptide inhibits binding of the dye to DNA. Upon activation of caspase-3/7 in apoptotic cells, the DEVD peptide is cleaved and the free dye can bind DNA, generating a bright green fluorescence. The activation of Caspase-3 and Caspase-7 is downstream of inhibition of MCL-1 or other apoptosis inhibiting proteins in cell lines that are dependent on them.
The live-cell readout on the IncuCyte permits tracking over time of the Caspase activation. […] The IncuCyte readout also allows one to normalize for cell number, as the suspension cells are hard to distribute evenly.
Signals were measured every 2 h for a duration of 22 h. The ratio of the Caspase mask to the Confluence mask, per image, as raw data, was calculated and the kinetic trace for every well was exported to Genedata Screener for analysis.
In Genedata Screener values for 6 h, 12 h, and 22 h from the kinetic traces were extracted. The values were normalized against negative controls (untreated cells). A standard dose-response analysis was performed on the normalized data.
The following data was reported at each of the following three aforementioned time points: (a) The dose-response curve, (b) The qAC50 and qAC50 Mode, and (c) Max Activity.
Cells were maintained in culture medium containing 10% Heat Inactivated (HI) FBS, 2 mM L-Glutamine and 50 μg/mL Gentamycin phenol red free RPMI-1640. Cells were split at 0.4 million/mL twice a week.
On Day 1, plates containing individual wells with test compounds at 10 mM concentration, 150 nL per well. The final concentrations range from […] compound (and no compound control) and compounds were thawed at room temperature for 1 hour. 25 μl of prewarmed medium was added into each well by multidrop (column 1, 3-22, 24), followed by addition of DMSO control (0.6% DMSO) in column 2. The plate was sealed using Breathe-Easy® sealing membrane and shaken for 30 min at room temperature to dissolve the test compound(s) in medium. The plate was then kept in the incubator for 1 hour at 37° C., 5% CO2.
MOLP8 cells in medium at […] (20000/50 μl final in assay) were prepared with CellEvent™ Caspase-3/7 Green Detection Reagent at 4 μM (2 μM final in assay). Once prepared, the cells were added to the test compound plate in an amount of 20000 and the plate was immediately placed in the IncuCyte and imaging started using following settings: 10× objective, 2 s exposure time in green channel, interval of 2 h, acquisition stopped after 22 h.
For analysis in IncuCyte, a Basic Analysis protocol was defined to calculate the “confluence” and “caspase” areas from the “Phase” and “green” images, respectively, as follows: (a) Confluence: Segmentation Adjustment 1, Hole Fill 0, Adjust Size −2, No filters (b) Caspase: Top-Hat segmentation, Radius 10, Threshold 0.3 GCU, Edge Split On with sensitivity 0, Hole Fill 0, Adjust Size 1, and filter on a minimum Area of 20 μm^2. The analyzer is trained on a sufficient number of positive and negative control wells, as well as compound treated wells, verifying that the “confluence” layer detects both live and dead (condensed) cells. […]

The subject of assay [2] is MOLP-8 human multiple myeloma cell line. As to the kind of experiment: MOLP8 Caspase-Glo 3/7 luminescent assay. Format: cell-based. The conditions noted are these: averaged over all runs on all batches.
Source text: as §1
The Caspase-Glo® 3/7 Assay is a luminescent assay that measures caspase-3 and -7 activities in purified enzyme preparations or cultures of adherent or suspension cells. The assay provides a proluminescent caspase-3/7 substrate, which contains the tetrapeptide sequence DEVD. This substrate is cleaved to release aminoluciferin, a substrate of luciferase used in the production of light. Addition of the single Caspase-Glo® 3/7 Reagent in an “add-mix-measure” format results in cell lysis, followed by caspase cleavage of the substrate and generation of a “glow-type” luminescent signal.
This assay uses the MOLP-8 human multiple myeloma cell line, which is sensitive to MCL-1 inhibition.
Cell cultures were maintained between 0.2 and 2.0×10^6 cells/mL. The cells were harvested by collection in 50 mL conical tubes. The cells were then pelleted at 500 g for 5 mins before removing supernatant and resuspension in fresh pre-warmed culture medium. The cells were counted and diluted as needed.
The assay reagent was prepared by transferring the buffer solution to the substrate vial and mixing. The solution may be stored for up to 1 week at 4° C. with negligible loss of signal.
Compounds were delivered in assay-ready plates (Proxiplate) and stored at −20° C.
Assays always include 1 reference compound plate containing reference compounds. The plates were spotted with 40 nL of compounds (0.5% DMSO final in cells; serial dilution; 30 μM highest conc. 1/3 dilution, 10 doses, duplicates). The compounds were used at room temperature and 4 μL of pre-warmed media was added to all wells except column 2 and 23. The negative control was prepared by adding 1% DMSO in media. The positive control was prepared by adding the appropriate positive control compound in final concentration of 60 μM in media. The plate was prepared by adding 4 μL negative control to column 23, 4 μL positive control to column 2 and 4 μL cell suspension to all wells in the plate. The plate with cells was then incubated at 37° C. for 2 hours. The assay signal reagent is the Caspase-Glo solution described above, and 8 μL was added to all wells. The plates were then sealed and measured after 30 minutes.
The activity of a test compound was calculated as percent change in apoptosis induction as follows: […]

Setting [3] is: read-out: MOLP8 Caspase 3/7 AC50 at 6 h, 6 h.
The mark [4] stands for this setting: read-out: MOLP8 Caspase 3/7 AC50 at 12 h, 12 h.
Setting [5] is: read-out: MOLP8 Caspase 3/7 AC50 at 22 h, 22 h.
The mark [6] stands for this setting: read-out: MOLP8 Caspase-Glo AC50, MOLP8 cells, 2 hours incubation.
[7] abbreviates: MOLP8 cells, 2 hours incubation, read-out: MOLP8 Caspase-Glo AC50.

For the compound `COCCn1nc2c(c1C)-c1c(Cl)ccc3c(c(C(=O)O)n(C)c13)CCCOc1cc(cc3ccccc13)SCc1cc(nn1C)CN(C)C2` (single isomer, unassigned) [Compound 27], the inhibition constant (Ki) (in general, a dissociation constant, usually derived from enzyme kinetics or from competition with a known ligand) in assay [1] is 0.03 nM and 0.06 nM. The AC50 in the assay on MOLP8 cell line (setting [3]) turned out to be 100 nM; with MOLP8 cell line (setting [4]) it was 100 nM; in the assay on MOLP8 cell line (setting [5]), 90 nM; in assay [2] (setting [6]), 36 nM.
On to `COCCn1nc2c(c1C)-c1c(Cl)ccc3c(c(C(=O)O)n(C)c13)CCCOc1cc(cc3ccccc13)SCc1cc(nn1C)CN(C)C2` (single isomer, unassigned) [Compound 28], for which the Ki in assay [1] is 9.8 nM and 9.39 nM. Further, the AC50 in the assay with MOLP8 cell line (setting [3]) was about 20700 nM; with MOLP8 cell line (setting [4]), 13400 nM; in the assay with MOLP8 cell line (setting [5]) it was 11400 nM; in assay [2] (setting [6]), 5400 nM.
As for `COCCOCCn1nc(C)c2c1CN(C)Cc1cc(n(C)n1)CSc1cc(c3ccccc3c1)OCCCc1c(C(=O)O)n(C)c3c-2c(Cl)ccc13` (single isomer, unassigned) [Compound 29], the inhibition constant (Ki) in assay [1] is 0.06 nM and 0.03 nM. Further, the AC50 in the assay on MOLP8 cell line (setting [3]) turned out to be 60 nM; in the assay with MOLP8 cell line (setting [4]) it was 62 nM; in the assay with MOLP8 cell line (setting [5]) it was 60 nM; in assay [2] (setting [7]) it was 23 nM.
For `COCCOCCn1nc(C)c2c1CN(C)Cc1cc(n(C)n1)CSc1cc(c3ccccc3c1)OCCCc1c(C(=O)O)n(C)c3c-2c(Cl)ccc13` (single isomer, unassigned) [Compound 30], in assay [1], the Ki was 0.81 nM and 0.75 nM. The AC50 in the assay on MOLP8 cell line (setting [3]) was 2010 nM; in the assay with MOLP8 cell line (setting [4]), 2140 nM; with MOLP8 cell line (setting [5]), 2230 nM; in assay [2] (setting [7]), 971 nM.
Take `COCCOCCn1nc2c(c1C)-c1c(Cl)ccc3c(c(C(=O)O)n(C)c13)CCCOc1cc(cc3ccccc13)SCc1cc(nn1C)CN(C)C2` (single isomer, unassigned) [Compound 31]: the Ki in assay [1] is 0.04 nM and 0.03 nM. Further, the AC50 with MOLP8 cell line (setting [3]) came out at 160 nM; in the assay with MOLP8 cell line (setting [4]), 160 nM; in the assay with MOLP8 cell line (setting [5]) it was 160 nM; in assay [2] (setting [7]), 39 nM.
Consider `COCCOCCn1nc2c(c1C)-c1c(Cl)ccc3c(c(C(=O)O)n(C)c13)CCCOc1cc(cc3ccccc13)SCc1cc(nn1C)CN(C)C2` (single isomer, unassigned) [Compound 32], for which the Ki in assay [1] was 7.44 nM and 8.51 nM. For the same compound, the AC50 with MOLP8 cell line (setting [3]) was about 27500 nM; with MOLP8 cell line (setting [4]), about 21500 nM; with MOLP8 cell line (setting [5]) it was about 20000 nM; in assay [2] (setting [7]), 12100 nM.
On to `Cc1nn(CCCN2CCOCC2)c2c1-c1c(Cl)ccc3c(c(C(=O)O)n(C)c13)CCCOc1cc(cc3ccccc13)SCc1cc(nn1C)CN(C)C2` (single isomer, unassigned) [Compound 33], for which the affinity in assay [1] corresponds to a Ki of 0.03 nM. The AC50 with MOLP8 cell line (setting [3]) is 300 nM; with MOLP8 cell line (setting [4]), 240 nM; in the assay with MOLP8 cell line (setting [5]), 340 nM; in assay [2] (setting [7]), 94 nM.
On to `Cc1nn(CCCN2CCOCC2)c2c1-c1c(Cl)ccc3c(c(C(=O)O)n(C)c13)CCCOc1cc(cc3ccccc13)SCc1cc(nn1C)CN(C)C2` (single isomer, unassigned) [Compound 34], for which the Ki in assay [1] is 0.47 nM and 0.68 nM. The AC50 in the assay on MOLP8 cell line (setting [3]) came to 2250 nM; in the assay with MOLP8 cell line (setting [4]), 2540 nM; in the assay on MOLP8 cell line (setting [5]), 2320 nM; in assay [2] (setting [7]), 1000 nM.
As to `Cc1c2c(nn1CCCN1CCOCC1)CN(C)Cc1cc(n(C)n1)CSc1cc(c3ccccc3c1)OCCCc1c(C(=O)O)n(C)c3c-2c(Cl)ccc13` (single isomer, unassigned) [Compound 36], the Ki in assay [1] was 1.34 nM and 2.06 nM. Also, the AC50 in the assay on MOLP8 cell line (setting [3]) amounted to 6140 nM; in the assay on MOLP8 cell line (setting [4]), 5770 nM; in the assay with MOLP8 cell line (setting [5]), 4290 nM; in assay [2] (Homo sapiens, MOLP-8, 2 h, MOLP8 cells, 2 hours incubation, read-out: MOLP8 Caspase-Glo AC50), 2820 nM.
Turning to `Cc1c2c(nn1CCO)CN(C)Cc1cc(n(C)n1)CSc1cc(c3ccccc3c1)OCCCc1c(C(=O)O)n(C)c3c-2c(Cl)ccc13` (single isomer, unassigned) [Compound 38], in assay [1], the Ki is 0.7 nM and 0.48 nM. Also, the AC50 with MOLP8 cell line (setting [3]) was 5490 nM; with MOLP8 cell line (setting [4]), 5390 nM; in the assay with MOLP8 cell line (setting [5]), 5160 nM; in assay [2] (Homo sapiens, MOLP-8, 2 h, read-out: MOLP8 Caspase-Glo AC50 (nM), MOLP8 cells, 2 hours incubation) it was 3050 nM.
